Results reported in publication PMC8540821, “Estimation of the Difference in Colistin Plasma Levels in Critically Ill Patients with Favorable or Unfavorable Clinical Outcomes” (Pharmaceutics, 2021).
Converted amounts (≈) assume the structure as drawn. Like-named read-outs stand apart in the source and are kept apart here. Blank lines part the entries; values can stand above or below the molecule they belong to. Where a SMILES comes first, the peptide text is derived from it. Bridges are numbered along the chain shown (N, C = ends). [ ]: non-standard residue; d: D form. The star is where a group is joined. X1 = CC[C@H](C)CCCCC(=O)*; Dab = NCC[C@H](N)C(=O)O

Key:
P. aeruginosa = experiment: Susceptibility of clinical isolates (VITEK 2; MIC by broth dilution on microplate); format: cell-based, Pseudomonas aeruginosa; settings: for MIC: Pseudomonas aeruginosa, broth dilution
Text: (§1) The bacterial isolates were recovered in MacConkey agar (Oxoid-Thermo Scientific®, Hampshire, UK) and sent to the Bacterial Molecular Genetics Laboratory in AMIES transport media (COPAN). […] The MICs of meropenem, amikacin, and colistin were established by the broth dilution method on a microplate. E. coli ATCC® 25922^TM and P. aeruginosa ATCC® 27853^TM strains was used as a susceptibility control (American Type Culture Collection). Finally, the carbapenemase genes blaIMP, blaOXA-48, blaVIM, blaGES, blaKPC, and blaNDM were assessed by multiplex PCR [45].

K. pneumoniae = experiment: as above; format: cell-based, Klebsiella pneumoniae; settings: for MIC: Klebsiella pneumoniae, broth dilution, read-out: highest MIC
Text: as §1

A. baumannii = experiment: as above; format: cell-based, Acinetobacter baumannii; settings: for MIC: Acinetobacter baumannii, broth dilution, one isolate; for isolates I (intermediate), n (%) / isolates R (resistant), n (%) / isolates S (susceptible), n (%): n = 1, favorable outcome
Text: as §1

P. putida = experiment: as above; format: cell-based, Pseudomonas putida
Text: as §1

E. cloacae = experiment: as above; format: cell-based, Enterobacter cloacae; settings: for isolates I (intermediate), n (%) / isolates R (resistant), n (%) / isolates S (susceptible), n (%): n = 1, favorable outcome
Text: as §1

E. coli = experiment: as above; format: cell-based, Escherichia coli; settings: n = 1, favorable outcome
Text: as §1

C. freundii = experiment: as above; format: cell-based; settings: n = 1, unfavorable outcome
Text: as §1

clinical = settings: human, in vivo, plasma Cmin, fourth day of treatment, HPLC-UV, median (IQR), read-out: Colistin levels, Median, IQR
Experimental: The doses were prescribed by the treating physician based on the institution’s drug-therapeutic guidelines (load of 1 mg/kg and maintenance of 3 mg/kg per day, divided into three doses). Measurement of the colistin concentration in plasma was performed on the fourth day of treatment, when it was assumed that the colistin concentrations would have reached a steady state. Colistin plasma concentrations (Cmin) were measured just before CMS administration. Cmin was chosen because it is more convenient from a practical point of view. Clinical outcomes were classified as (a) favorable (absence of fever (T < 38 °C); leukocytosis <12,000; not requiring vasopressors; in infections in which control cultures could be obtained, these cultures must be sterile within 7 days of treatment and without changes in the initial antimicrobial regimen within of the first 7 days of treatment. In addition, mortality at 30 days was measured as a secondary outcome; or (b) unfavorable (in the case of fever > 38 °C; leukocytosis > 12,000; requirement for a vasopressor or the presence of positive control cultures for the initial microorganism). The clinical outcomes were determined by consensus of at least two physicians on the study team. If all the criteria were met, the patient was assigned as having a favorable outcome; if one criterion was not met, the outcome was considered not favorable. […]

[1] = system: multiresistant Gram-negative carbapenemase-producing bacteria; experiment: Clinical outcome at day 7 and 30-day mortality in patients treated with CMS; format: in vivo, human
Experimental: This prospective observational study was conducted from September 2017 and June 2020 at a university clinic in the Hospitalization and Critical Care services. The participation of patients in the study was according to the proposed inclusion criteria. Patients over 18 years old, hospitalized for infections caused by multiresistant Gram-negative carbapenemase-producing bacteria, diagnosed in hospital at the clinic of the University of La Sabana, who had been treated with CMS for at least 7 days at the institution, were included. […] Detailed demographic (age, sex, weight), clinical (site of infection, severity of disease, comorbidities (Charlson comorbidity index), CMS loading dose, CMS maintenance dose, duration of treatment, days of stay in the hospital, mortality, carbapenemase class, concomitant antibiotic therapy), laboratory (hemoglobin, red blood cell, neutrophil and platelet counts, serum creatinine and glomerular filtration rate (GFR)), and microbiological (bacterial isolation and characterization) data from each patient were recorded.
The doses were prescribed by the treating physician based on the institution’s drug-therapeutic guidelines (load of 1 mg/kg and maintenance of 3 mg/kg per day, divided into three doses). Measurement of the colistin concentration in plasma was performed on the fourth day of treatment, when it was assumed that the colistin concentrations would have reached a steady state. Colistin plasma concentrations (Cmin) were measured just before CMS administration. Cmin was chosen because it is more convenient from a practical point of view. Clinical outcomes were classified as (a) favorable (absence of fever (T < 38 °C); leukocytosis <12,000; not requiring vasopressors; in infections in which control cultures could be obtained, these cultures must be sterile within 7 days of treatment and without changes in the initial antimicrobial regimen within of the first 7 days of treatment. In addition, mortality at 30 days was measured as a secondary outcome; or (b) unfavorable (in the case of fever > 38 °C; leukocytosis > 12,000; requirement for a vasopressor or the presence of positive control cultures for the initial microorganism). The clinical outcomes were determined by consensus of at least two physicians on the study team. If all the criteria were met, the patient was assigned as having a favorable outcome; if one criterion was not met, the outcome was considered not favorable.

[2] = Acute kidney injury / renal failure (serum creatinine increase above 0.3 mg/dl in 48 h) by colistin level; format: in vivo, human; settings: high colistin levels n = 2
Experimental: Regarding the incidence of renal failure, defined as an increase in serum creatinine above 0.3 mg/dl in 48 h, this occurred in 20.7% of patients with low colistin levels, in 50% of patients with normal colistin levels, and in 50% of patients with high colistin levels (Table 5).

[3] = cited from earlier work
Text: Colistin has been clinically available since the 1950s, but it soon fell into disuse, mainly due to its nephrotoxic potential. Alongside its nephrotoxicity, which ranges between 0 and 58% in different studies, some evidence has found the incidence of peripheral neuropathy may be up to 50% with its use, as the main manifestation of neurotoxicity. The lack of other available options has increased the use of colistin in MDR infections, even with its safety profile. The pharmacokinetics of colistin are complex. Colistin is available as a sulfate and as sodium colis ...

[4] = isolates from patients with favorable outcome n = 10
[5] = isolates from patients with unfavorable outcome n = 14

MIC (P. aeruginosa; established in 23.3% of isolates, read-out: highest MIC): 128 µg/mL (≈ 219 µM) | MIC (K. pneumoniae): 64 µg/mL (≈ 109 µM) | MIC (A. baumannii): 64 µg/mL (≈ 109 µM)
Molecule: NCC[C@H](O)C(=O)N[C@@H]1C[C@H](N)[C@@H](O[C@H]2O[C@H](CN)[C@@H](O)[C@H](O)[C@H]2O)[C@H](O)[C@H]1O[C@H]1O[C@H](CO)[C@@H](O)[C@H](N)[C@H]1O [amikacin]

Molecule: CN(C)c1cc(NC(=O)CNC(C)(C)C)c(O)c2c1C[C@H]1C[C@H]3[C@H](N(C)C)C(O)=C(C(N)=O)C(=O)[C@@]3(O)C(O)=C1C2=O [Glycylcyclines, tigecycline]
isolates I (intermediate), n (%) (P. aeruginosa; [4]): 0 (0) n (%) | isolates R (resistant), n (%) (P. aeruginosa; [4]): 9 (90) n (%) | isolates S (susceptible), n (%) (P. aeruginosa; [4]): 0 (0) n (%) | isolates I (intermediate), n (%) (P. aeruginosa; [5]): 0 (0) n (%) | isolates R (resistant), n (%) (P. aeruginosa; [5]): 11 (78.6) n (%) | isolates S (susceptible), n (%) (P. aeruginosa; [5]): 0 (0) n (%) | isolates I (intermediate), n (%) (K. pneumoniae; favorable outcome n = 3): 0 (0) n (%) | isolates R (resistant), n (%) (K. pneumoniae; favorable outcome n = 3): 0 (0) n (%) | isolates S (susceptible), n (%) (K. pneumoniae; favorable outcome n = 3): 1 (33.3) n (%) | isolates I (intermediate), n (%) (K. pneumoniae; unfavorable outcome n = 2): 0 (0) n (%) | isolates R (resistant), n (%) (K. pneumoniae; unfavorable outcome n = 2): 0 (0) n (%) | isolates S (susceptible), n (%) (K. pneumoniae; unfavorable outcome n = 2): 2 (100) n (%) | isolates I (intermediate), n (%) (P. putida; favorable outcome n = 1): 1 (100) n (%) | isolates R (resistant), n (%) (P. putida; favorable outcome n = 1): 0 (0) n (%) | isolates S (susceptible), n (%) (P. putida; favorable outcome n = 1): 0 (0) n (%) | isolates I (intermediate), n (%) (P. putida; unfavorable outcome n = 1): 0 (0) n (%) | isolates R (resistant), n (%) (P. putida; unfavorable outcome n = 1): 0 (0) n (%) | isolates S (susceptible), n (%) (P. putida; unfavorable outcome n = 1): 1 (100) n (%) | isolates I (intermediate), n (%) (A. baumannii): 0 (0) n (%) | isolates R (resistant), n (%) (A. baumannii): 0 (0) n (%) | isolates S (susceptible), n (%) (A. baumannii): 1 (100) n (%) | isolates I (intermediate), n (%) (E. cloacae): 0 (0) n (%) | isolates R (resistant), n (%) (E. cloacae): 0 (0) n (%) | isolates S (susceptible), n (%) (E. cloacae): 1 (100) n (%) | isolates I (intermediate), n (%) (E. coli): 0 (0) n (%) | isolates R (resistant), n (%) (E. coli): 0 (0) n (%) | isolates S (susceptible), n (%) (E. coli): 1 (100) n (%) | isolates I (intermediate), n (%) (C. freundii): 1 (100) n (%) | isolates R (resistant), n (%) (C. freundii): 0 (0) n (%) | isolates S (susceptible), n (%) (C. freundii): 0 (0) n (%)

MIC (P. aeruginosa; found in 56.7% of isolates, 88.2% of which harbored KPC and VIM, read-out: MIC): > 1020 µg/mL | MIC (K. pneumoniae): 32 µg/mL (≈ 83.4 µM) | MIC (P. putida; Pseudomonas putida, broth dilution, one isolate): > 1020 µg/mL | MIC (A. baumannii): 64 µg/mL (≈ 167 µM) | MIC (E. cloacae; Enterobacter cloacae, broth dilution, read-out: highest MIC): 32 µg/mL (≈ 83.4 µM)
Molecule: C[C@@H](O)[C@H]1C(=O)N2C(C(=O)O)=C(S[C@@H]3CN[C@H](C(=O)N(C)C)C3)[C@H](C)[C@H]12 [meropenem]

Molecule: CC[C@H](C)CCCCC(=O)N[C@@H](CCN)C(=O)N[C@H](C(=O)N[C@@H](CCN)C(=O)N[C@H]1CCNC(=O)[C@H]([C@@H](C)O)NC(=O)[C@H](CCN)NC(=O)[C@H](CCN)NC(=O)[C@H](CC(C)C)NC(=O)[C@@H](CC(C)C)NC(=O)[C@H](CCN)NC1=O)[C@@H](C)O [colistin] (X1-[Dab]T[Dab][Dab][Dab][dL]L[Dab][Dab]T; lactam 4-C)
level at 96 h (clinical; favorable clinical outcome n = 34, p = 0.167 vs unfavorable): 160 ng/mL | level at 96 h (clinical; unfavorable clinical outcome n = 23): 540 ng/mL | 30 days mortality, n, % ([1]; high colistin levels n = 2 (>4 µg/mL)): 0 (0%) n, % | 30 days mortality, n, % ([1]; normal colistin levels n = 2 (2 to 4 µg/mL)): 0 (0%) n, % | Favorable clinical outcomes ([1]; patients with colistin levels within the normal range): 50% | Favorable clinical outcomes ([1]; patients with levels above the limit of normality): 50% | Favorable clinical outcomes ([1]; patients with low colistin levels): 60% | Acute kidney injury, n, % [2]: 1 (50%) n, % | isolates I (intermediate), n (%) (P. aeruginosa; [4]): 4 (40) n (%) | isolates R (resistant), n (%) (P. aeruginosa; [4]): 4 (40) n (%) | isolates S (susceptible), n (%) (P. aeruginosa; [4]): 2 (20) n (%) | isolates I (intermediate), n (%) (P. aeruginosa; [5]): 6 (42.8) n (%) | isolates R (resistant), n (%) (P. aeruginosa; [5]): 7 (50) n (%) | isolates S (susceptible), n (%) (P. aeruginosa; [5]): 1 (7.14) n (%) | isolates I (intermediate), n (%) (K. pneumoniae; favorable outcome n = 3): 1 (33.3) n (%) | isolates R (resistant), n (%) (K. pneumoniae; favorable outcome n = 3): 2 (66.7) n (%) | isolates S (susceptible), n (%) (K. pneumoniae; favorable outcome n = 3): 0 (0) n (%) | isolates I (intermediate), n (%) (K. pneumoniae; unfavorable outcome n = 2): 0 (0) n (%) | isolates R (resistant), n (%) (K. pneumoniae; unfavorable outcome n = 2): 0 (0) n (%) | isolates S (susceptible), n (%) (K. pneumoniae; unfavorable outcome n = 2): 2 (100) n (%) | isolates I (intermediate), n (%) (P. putida; favorable outcome n = 1): 1 (100) n (%) | isolates R (resistant), n (%) (P. putida; favorable outcome n = 1): 0 (0) n (%) | isolates S (susceptible), n (%) (P. putida; favorable outcome n = 1): 0 (0) n (%) | isolates I (intermediate), n (%) (P. putida; unfavorable outcome n = 1): 0 (0) n (%) | isolates R (resistant), n (%) (P. putida; unfavorable outcome n = 1): 0 (0) n (%) | isolates S (susceptible), n (%) (P. putida; unfavorable outcome n = 1): 1 (100) n (%) | isolates I (intermediate), n (%) (A. baumannii): 1 (100) n (%) | isolates R (resistant), n (%) (A. baumannii): 0 (0) n (%) | isolates S (susceptible), n (%) (A. baumannii): 0 (0) n (%) | isolates I (intermediate), n (%) (E. cloacae): 0 (0) n (%) | isolates R (resistant), n (%) (E. cloacae): 1 (100) n (%) | isolates S (susceptible), n (%) (E. cloacae): 0 (0) n (%) | isolates I (intermediate), n (%) (E. coli): 1 (100) n (%) | isolates R (resistant), n (%) (E. coli): 0 (0) n (%) | isolates S (susceptible), n (%) (E. coli): 0 (0) n (%) | isolates I (intermediate), n (%) (C. freundii): 1 (100) n (%) | isolates R (resistant), n (%) (C. freundii): 0 (0) n (%) | isolates S (susceptible), n (%) (C. freundii): 0 (0) n (%) | calculated volume of distribution [3]: 0.34 L/kg | half-life [3]: 4.18 h

Molecule: colistimethate sodium [CMS]
half-life ([3]; in vivo): 2.07 h
